From patent US20160375073A1, “COMPOSITION FOR TREATMENT OR PREVENTION OF OBESITY, CONTAINING WATER EXTRACTS OF FOMITELLA FRAXINEA” (POSTECH ACADEMY-INDUSTRY FOUNDATION, priority 2011, published 2016)

System: lipid absorption in the digestive tract
Experiment: Amount of lipid absorption from the digestive tract into blood (14C-triolein, plasma radioactivity)
Format: in vivo, mouse
Settings: male Balb/c mice, oral 14C-triolein, plasma 6 hours after administration, relative to untreated control = 1; FIG. 3
Description: Triolein (Amersham, 100 μCi/mL) radiolabeled with ^14C was mixed with 1% (w/v) sodium carboxylmethyl cellulose (CMC-Na) and 1% (v/v) Tween 80, and then 0.1 mL of the mixture was forcibly administered into each mouse through an oral zonde so that 1 μCi could be delivered to each mouse. Here, the mouse in the control group (an 8-week old male Balb/c with body weight of 25 g) was treated with 400 μg of Orlistat (20 mg/kg), which is used as an obesity treatment, and the mouse in the experimental group (an 8-week old male Balb/c with body weight of 25 g) was treated with 0.5 mL of the water extract (50 mg/mL) of Fomitella […] prepared in the Example after concentrating it into 0.1 mL. Six hours after the administration, blood samples were collected from the mice, and plasma was obtained by centrifuging the blood at […] at the rate of 14000 rpm, and the radioactive dose was measured by a liquid scintillator (Beta counter, Beckman LS1801). The control group was not treated with anything. The amount of lipid absorption was determined as a relative value by dividing the radioactive dose of each group into the radioactive dose of the control group, in which the radioactive dose of the control group was set at '1'. […] In particular, the result on the control group in FIG. 3 was obtained from the blood sample of a mouse not treated with any lipid absorption inhibitor.

SMILES: CCCCCCCCCCC[C@@H](C[C@@H]1OC(=O)[C@H]1CCCCCC)OC(=O)[C@H](CC(C)C)NC=O [Orlistat, orlistat]
- inhibitory effect upon lipid absorption: significant inhibitory effect upon lipid absorption
